Measurements taken from PubChem BioAssay (NCI).
Several values for one entry are separate records, joined by “and”; a condition that tells them apart may be missing. Equal values may be shown once.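 The compound was tested at five concentrations on cells cultured in 96-well plates, with a 48-hour exposure period. At the GI50, growth is halved. At the TGI there is no net growth.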

Legend:
Test in all cases: NCI tumour cell line growth inhibition, 48 h
DMS 273 small cell lung = system: DMS 273 small cell lung
RXF-631 renal = system: RXF-631 renal
XF 498 CNS = system: XF 498 CNS
BT-549 breast = system: BT-549 breast
MDA-MB-435 = system: MDA-MB-435
MDA-N = system: MDA-N
T-47D breast = system: T-47D breast
P388 leukemia = system: P388 leukemia
P388/ADR leukemia = system: P388/ADR leukemia
SN12K1 renal = system: SN12K1 renal

Structure (SMILES)	TGI (DMS 273 small cell lung)	TGI (RXF-631 renal) [µM]	TGI (XF 498 CNS) [µM]	also measured
O=C(N/N=C/c1cc(Br)ccc1O)N/N=C/c1cc(Br)ccc1O	> 100 µM	> 100	> 100	
COc1cc2[nH]c3c(c2cc1OC)CCN[C@]31CC[C@]2(CC3c4c(cc(OC)c(O)c42)CCN3C)C[C@H]1OC (some centres undefined)	4.46 µM	25.7	29.8	
O=C(Nc1cc(Cl)c(Cl)cc1Cl)C(=O)C1C(=O)NC(=S)NC1=O	> 100 µM	> 100	> 100	
COc1ccc(CN2CC(C)(C)C2=O)c(OC)c1	> 100 µM	> 100	> 100	
CCOC(=O)/C(C)=C(/O)C(=O)OCC	> 100 µM	> 100	> 100	
O=C(O)CNS(=O)(=O)c1ccc(NC(=O)c2ccc([N+](=O)[O-])cc2)cc1	> 100 µM	> 100	> 100	
Cc1nnc(NS(=O)(=O)c2ccc(N=Nc3cc(N=Nc4ccc(S(=O)(=O)Nc5nnc(C)s5)cc4)c4c(NC(=O)C(Cl)Cl)cccc4c3OC(=O)C(Cl)Cl)cc2)s1 (tested in a mixture with another compound)	39.8 µM	> 100	92.9	
[N-]=[N+]=C1C(=O)NN=C1c1ccccc1	> 100 µM	> 100	> 100	
CCOC(=O)N[C@@H]1C(CC(=O)OC)O[C@H]2OC(C)(C)O[C@H]21 (some centres undefined)	> 100 µM	> 100	> 100	
CCCCCCCCCCCCCCCC(=O)OCC(C[As](=O)(O)O)OC(=O)CCCCCCCCCCCCCCC (centres undefined)	> 100 µM	> 100	70.9	TGI (BT-549 breast): > 100 µM; TGI (MDA-MB-435): > 100 µM; TGI (MDA-N): > 100 µM; TGI (T-47D breast): > 100 µM
C=C(C)CCN[Si](c1ccccc1)(c1ccccc1)C(C)(C)C	37.6 µM	41.5	40.9	
CN(Cc1ccccc1)C(=O)c1ccccc1C(=O)O	> 100 µM	> 100	> 100	
COc1cc(Cc2nccc3cc(OC)c(OC)cc23)c(C(C)=O)cc1OC	300 µM and > 750 µM	> 750	300	GI50 (DMS 273 small cell lung): > 750 µM; TGI (P388 leukemia): 119 µM; TGI (P388/ADR leukemia): 30 µM; TGI (SN12K1 renal): 300 µM; TGI (T-47D breast): 25.1 µM
CN(C)CCC1(C2=CCCC2)CC/C(=C\c2ccc(Cl)cc2)C1=O (centres undefined)	24.8 µM	25.4	19.1	
CC1=CC(C)(C)N=C2SC(c3ccc(N)cc3)=NN12	> 61.2 µM	> 100	> 100	
